According to patent US20130072438A1, “OPIOID PEPTIDE ESTERS AND METHODS OF USE” (The United States Government as represented by the …, priority 2011, published 2013):
Residues, ends and D or L forms follow the SMILES beside them.

Tested on: male Wistar rats
Assay: Cold immersion tail withdrawal latency after intraperitoneal dosing
Type: in vivo, rat
Conditions: for Trial 1 Latency (s), post-treatment cold immersion response / Trial 2 Latency (s), post-treatment cold immersion response / Trial 3 Latency (s), post-treatment cold immersion response: from 30 min post-dose, -20° C bath
Method: Three male Wistar rats at 8 weeks of age (Taconic Farms, Germantown, N.Y.) were utilized in the experiment. Each rat was grasped firmly, while the distal half of its tail was immersed in a liquid bath at a temperature of −20° C. Latency periods (in seconds) were measured from the time that tails were immersed to the time that the rat removed its tail from the liquid. Prior to dosing, rats were given three trials, approximately ten minutes apart. […] Post-dose trials were also approximately ten minutes apart. Animals were examined for acute adverse effects to both the cold liquid bath and the test article.

SMILES: CCOC(=O)C1CCCN1C(=O)C(N)Cc1ccc(O)cc1 (stereo not drawn) [Tyr-Pro-Ethyl] (H-Tyr-Pro-OEt; configuration not given here)
- Mean latency of three trials, post-treatment cold immersion response (animal 1, 1 mg i.p.): 15.6 s
- Post-treatment mean with longest latency period eliminated (animal 1, 1 mg i.p.): 12.4
- Trial 1 Latency (s), post-treatment cold immersion response (animal 1, 1 mg i.p.): 13.2 s
- Trial 2 Latency (s), post-treatment cold immersion response (animal 1, 1 mg i.p.): 22.1 s
- Trial 3 Latency (s), post-treatment cold immersion response (animal 1, 1 mg i.p.): 11.5 s
- Mean latency of three trials, post-treatment cold immersion response (animal 2, 2 mg i.p.): 7.2 s
- Post-treatment mean with longest latency period eliminated (animal 2, 2 mg i.p.): 4.7
- Trial 1 Latency (s), post-treatment cold immersion response (animal 2, 2 mg i.p.): 4.7 s
- Trial 2 Latency (s), post-treatment cold immersion response (animal 2, 2 mg i.p.): 4.7 s
- Trial 3 Latency (s), post-treatment cold immersion response (animal 2, 2 mg i.p.): 12.2 s
- Mean latency of three trials, post-treatment cold immersion response (animal 3, 0.5 mg i.p.): 7.2167 s
- Post-treatment mean with longest latency period eliminated (animal 3, 0.5 mg i.p.): 6.3
- Trial 1 Latency (s), post-treatment cold immersion response (animal 3, 0.5 mg i.p.): 6.45 s
- Trial 2 Latency (s), post-treatment cold immersion response (animal 3, 0.5 mg i.p.): 6.2 s
- Trial 3 Latency (s), post-treatment cold immersion response (animal 3, 0.5 mg i.p.): 9.0 s
- Crossing of the BBB (rats, at the doses given (0.5, 1, 2 mg i.p.), inferred from latency data): able to cross the BBB
- Hydrolysis by esterases (rats, cerebrospinal fluid, inferred from latency data): hydrolyzed by esterases in the cerebrospinal fluid
- Effect on sensitivity to noxious stimulus (rats, cold immersion, 0.5, 1, 2 mg i.p.): increase sensitivity to noxious stimulus
